Laboratory results as given in article PMC6282443 (Journal of Enzyme Inhibition and Medicinal Chemistry, 2018).
Read-outs that look alike come from different tables or passages of the source.

What was measured:
Assay type in all cases: cell-based, human
HepG2 cells = assay: MTT anti-proliferative assay, HepG2; conditions: read-out: Anti-proliferative activity IC50, HepG2
A549 cells = assay: cells; conditions: read-out: Anti-proliferative activity IC50, A549
MCF-7 cells = assay: MTT anti-proliferative assay, MCF-7; conditions: read-out: Anti-proliferative activity IC50, MCF-7
H1975 cells = conditions: H1975, MTT; for IC50: read-out: Anti-proliferative activity IC50, H1975, 72 h

Compound	IC50 (HepG2 cells; Homo sapiens, HepG2, 72 h)	IC50 (A549 cells; Homo sapiens, A549, 72 h)	IC50 (MCF-7 cells; Homo sapiens, MCF7, 72 h)	inhibitory activity against H1975 cells (in words) (H1975 cells)	IC50 (HepG2 cells; HepG2, MTT, 72 h)	IC50 (A549 cells; A549, MTT, 72 h)	IC50 (MCF-7 cells; MCF-7, MTT, 72 h)	IC50 (H1975 cells)
COc1cc2ncnc(Nc3ccc(F)c(Cl)c3)c2cc1NC(=O)N/N=C/c1ccc(CN(C)C)cc1 [Compound 19, (E)-N-(4-((3-chloro-4-fluorophenyl)amino)-7-methoxyquinazolin-6-yl)-2-(4-((dimethylamino)methyl)benzylidene)hydrazine-1-carboxamide]	9.89 ± 0.96 µM	7.99 ± 0.82 µM	3.8 ± 0.22 µM	moderate inhibitory activity	–	–	–	–
CCN(CC)Cc1ccc(/C=N/NC(=O)Nc2cc3c(Nc4ccc(F)c(Cl)c4)ncnc3cc2OC)cc1 [Compound 20, (E)-N-(4-((3-chloro-4-fluorophenyl)amino)-7-methoxyquinazolin-6-yl)-2-(4-((diethylamino)methyl)benzylidene)hydrazine-1-carboxamide]	9.49 ± 0.47 µM	8.71 ± 0.54 µM	4.14 ± 0.57 µM	poorer cellular activity	–	–	–	–
COc1cc2ncnc(Nc3ccc(F)c(Cl)c3)c2cc1NC(=O)N/N=C/c1ccc(CN2CCCC2)cc1 [Compound 21, (E)-N-(4-((3-chloro-4-fluorophenyl)amino)-7-methoxyquinazolin-6-yl)-2-(4-(pyrrolidin-1-ylmethyl)benzylidene)hydrazine-1-carboxamide]	21.3 ± 1.47 µM	17.8 ± 1.22 µM	8.9 ± 0.48 µM	moderate inhibitory activity	–	–	–	–
COc1cc2ncnc(Nc3ccc(F)c(Cl)c3)c2cc1NC(=O)N/N=C/c1ccc(CN2CCN(C)CC2)cc1 [Compound 24, (E)-N-(4-((3-chloro-4-fluorophenyl)amino)-7-methoxyquinazolin-6-yl)-2-(4-((4-methylpiperazin-1-yl)methyl)benzylidene)hydrazine-1-carboxamide]	2.86 ± 0.13 µM	4.32 ± 0.61 µM	3.12 ± 0.38 µM	moderate inhibitory activity	–	–	–	–
CN(C)Cc1ccc(/C=N/NC(=O)Nc2cc3c(Nc4ccc(F)c(Cl)c4)ncnc3cc2O[C@H]2CCOC2)cc1 [Compound 25, (S,E)-N-(4-((3-chloro-4-fluorophenyl)amino)-7-((tetrahydrofuran-3-yl)oxy)quinazolin-6-yl)-2-(4-((dimethylamino)methyl)benzylidene)hydrazine-1-carboxamide]	3.76 ± 0.21 µM	4.13 ± 0.54 µM	4.41 ± 0.28 µM	poorer cellular activity	–	–	–	–
COc1cc2ncnc(Nc3ccc(F)c(Cl)c3)c2cc1NC(=O)N/N=C/c1ccc(OCCN(C)C)cc1 [Compound 31, (E)-N-(4-((3-chloro-4-fluoropheny)amino)-7-methoxyquinazolin-6-yl)-2-(4-(2-(dimethylamino)ethoxy)benzylidene)hydrazine-1-carboxamide]	–	–	–	–	36.3 ± 2.57 µM	40.1 ± 4.03 µM	37.2 ± 2.89 µM	45.3 ± 3.34 µM
CCN(CC)CCOc1ccc(/C=N/NC(=O)Nc2cc3c(Nc4ccc(F)c(Cl)c4)ncnc3cc2OC)cc1 [Compound 32, (E)-N-(4-((3-chloro-4-fluoropheny)amino)-7-methoxyquinazolin-6-yl)-2-(4-(2-(diethylamino)ethoxy)benzylidene)hydrazine-1-carboxamide]	–	–	–	poorer cellular activity	13.2 ± 1.03 µM	8.62 ± 1.13 µM	12.5 ± 1.24 µM	32.6 ± 3.45 µM
COc1cc2ncnc(Nc3ccc(F)c(Cl)c3)c2cc1NC(=O)N/N=C/c1ccc(OCCN2CCCCC2)cc1 [Compound 34, (E)-N-(4-((3-chloro-4-fluoropheny)amino)-7-methoxyquinazolin-6-yl)-2-(4-(2-(piperidin-1-yl)ethoxy)benzylidene)hydrazine-1-carboxamide]	–	–	–	poorer cellular activity	12.7 ± 1.25 µM	10.8 ± 1.43 µM	9.21 ± 1.16 µM	61.6 ± 5.67 µM
COc1cc2ncnc(Nc3ccc(Cl)c(F)c3)c2cc1NC(=O)N/N=C/c1ccc(OCCN2CCOCC2)cc1 [Compound 35, (E)-N-(4-((4-chloro-3-fluorophenyl)amino)-7-methoxyquinazolin-6-yl)-2-(4-(2-morpholinoethoxy)benzylidene) hydrazine-1-carboxamide]	–	–	–	–	16.5 ± 1.42 µM	19.5 ± 1.35 µM	21.8 ± 1.34 µM	25.2 ± 1.35 µM
COc1cc2ncnc(Nc3ccc(F)c(Cl)c3)c2cc1NC(=O)N/N=C/c1ccc(OCCN2CCN(C)CC2)cc1 [Compound 36, (E)-N-(4-((3-chloro-4-fluoropheny)amino)-7-methoxyquinazolin-6-yl)-2-(4-(2-(4-methylpiperazin-1-yl)ethoxy)benzylidene)hydrazine-1-carboxamide]	–	–	–	poorer cellular activity	10.2 ± 1.09 µM	11.4 ± 1.07 µM	6.2 ± 0.81 µM	24.7 ± 1.86 µM
CN(C)CCOc1ccc(/C=N/NC(=O)Nc2cc3c(Nc4ccc(F)c(Cl)c4)ncnc3cc2O[C@H]2CCOC2)cc1 [Compound 37, (S,E)-N-(4-((3-chloro-4-fluoropheny)amino)-7-((tetrahydrofuran-3-yl)oxy)quinazolin-6-yl)-2-(4-(2-(dimethylamino)ethoxy)benzylidene)hydrazine-1-carboxamide]	–	–	–	moderate inhibitory activity	8.2 ± 0.81 µM	14.7 ± 1.35 µM	11.7 ± 1.34 µM	10.2 ± 1.12 µM
O=C(N/N=C/c1ccc(OCCN2CCCC2)cc1)Nc1cc2c(Nc3ccc(F)c(Cl)c3)ncnc2cc1O[C@H]1CCOC1 [Compound 39, (S,E)-N-(4-((3-chloro-4-fluoropheny)amino)-7-((tetrahydrofuran-3-yl)oxy)quinazolin-6-yl)-2-(4-(2-(pyrrolidin-1-yl)ethoxy)benzylidene)hydrazine-1-carboxamide]	–	–	–	–	67.3 ± 6.24 µM	63.9 ± 5.35 µM	64.8 ± 5.35 µM	> 100 µM
O=C(N/N=C/c1ccc(OCCN2CCCCC2)cc1)Nc1cc2c(Nc3ccc(F)c(Cl)c3)ncnc2cc1O[C@H]1CCOC1 [Compound 40, (S,E)-N-(4-((3-chloro-4-fluoropheny)amino)-7-((tetrahydrofuran-3-yl)oxy)quinazolin-6-yl)-2-(4-(2-(piperidin-1-yl)ethoxy)benzylidene)hydrazine-1-carboxamide]	–	–	–	–	17.4 ± 1.24 µM	24.2 ± 1.24 µM	24.2 ± 1.23 µM	35.3 ± 2.35 µM
O=C(N/N=C/c1ccc(OCCN2CCOCC2)cc1)Nc1cc2c(Nc3ccc(F)c(Cl)c3)ncnc2cc1O[C@H]1CCOC1 [Compound 41, (S,E)-N-(4-((3-chloro-4-fluoropheny)amino)-7-((tetrahydrofuran-3-yl)oxy)quinazolin-6-yl)-2-(4-(2-morpholinoethoxy)benzylidene)hydrazine-1-carboxamide]	–	–	–	–	40.2 ± 3.04 µM	37.8 ± 2.54 µM	28.8 ± 1.29 µM	25.5 ± 1.44 µM
COc1cc2ncnc(Nc3ccc(F)c(Cl)c3)c2cc1NC(=O)N/N=C/c1ccc(OCCCN2CCCCC2)cc1 [Compound 46, (E)-N-(4-((3-chloro-4-fluoropheny)amino)-7-methoxyquinazolin-6-yl)-2-(4-(3-(piperidin-1-yl)propoxy)benzylidene)hydrazine-1-carboxamide]	–	–	–	–	9.58 ± 0.94 µM	4.01 ± 0.56 µM	6.85 ± 0.65 µM	3.1 ± 0.49 µM
COc1cc2ncnc(Nc3ccc(F)c(Cl)c3)c2cc1NC(=O)N/N=C/c1ccc(OCCCN2CCOCC2)cc1 [Compound 47, (E)-N-(4-((3-chloro-4-fluoropheny)amino)-7-methoxyquinazolin-6-yl)-2-(4-(3-morpholinopropoxy)benzylidene)hydrazine-1-carboxamide]	–	–	–	–	28.4 ± 1.78 µM	34.8 ± 1.26 µM	27.5 ± 1.29 µM	41.2 ± 2.07 µM
(E)-N-(4-((3-chloro-4-fluoropheny)amino)-7-methoxyquinazolin-6-yl)-2-(4-(2-(pyrrolidin-1-yl)ethoxy)benzylid ene)hydrazine-1-carboxamide [Compound 33]	–	–	–	–	46.7 ± 4.46 µM	36.4 ± 2.78 µM	44.2 ± 3.75 µM	49.3 ± 4.68 µM
(E)-N-(4-((3-chloro-4-fluoropheny)amino)-7-methoxyquinazolin-6-yl)-2-(4-(3-(4-methylpiperazin-1-yl)propoxy) benzylidene)hydrazine-1-carboxamide [Compound 48]	–	–	–	moderate inhibitory activity	14.5 ± 1.27 µM	2.96 ± 0.36 µM	12.2 ± 0.89 µM	10.2 ± 1.26 µM
(E)-N-(4-((3-chloro-4-fluoropheny)amino)-7-methoxyquinazolin-6-yl)-2-(4-(3-(dimethylamino)propoxy)benzyl idene)hydrazine-1-carboxamide [Compound 43]	–	–	–	–	> 100 µM	43.1 ± 3.34 µM	> 100 µM	> 100 µM
(E)-N-(4-((3-chloro-4-fluoropheny)amino)-7-methoxyquinazolin-6-yl)-2-(4-(3-(pyrrolidin-1-yl)propoxy)benzyli dene)hydrazine-1-carboxamide [Compound 45]	–	–	–	–	24.5 ± 1.27 µM	23.2 ± 1.47 µM	16.9 ± 1.34 µM	38.2 ± 1.23 µM
(S,E)-N-(4-((3-chloro-4-fluoropheny)amino)-7-((tetrahydrofuran-3-yl)oxy)quinazolin-6-yl)-2-(4-(2-(4-methylpi perazin-1-yl)ethoxy)benzylidene)hydrazine-1-carboxamide [Compound 42]	–	–	–	moderate inhibitory activity	13.4 ± 0.54 µM	2.52 ± 0.54 µM	10.8 ± 0.68 µM	11.2 ± 1.34 µM
(S,E)-N-(4-((3-chloro-4-fluoropheny)amino)-7-((tetrahydrofuran-3-yl)oxy)quinazolin-6-yl)-2-(4-(2-(diethylamin o)ethoxy)benzylidene)hydrazine-1-carboxamide [Compound 38]	–	–	–	poorer cellular activity	1.91 ± 0.34 µM	3.01 ± 0.54 µM	1.99 ± 0.68 µM	> 100 µM
